target: T1, Human NK1 Receptor (Homo sapiens, UniProt P25103); assay: In Vitro Human NK1 Receptor Binding Assay ([125I]Bolton-Hunter substance P displacement, IM9 cells); settings: human NK1 receptor, IM9 cells, [125I]Bolton-Hunter substance P; read-out: IC50 (nM) hNK1
T1 construct: endogenous in cells; host or cells: Human lymphoma IM9 cells (whole cells)
Outline: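 Radioligand displacement on whole IM9 human lymphoma cells (2.5×10^6 cells/mL) using [125I]Bolton-Hunter substance P (0.05-0.1 nM), 50 min at 21° C in Tris pH 7.4/MnCl2 buffer with protease inhibitors. Non-specific binding defined by […] [Sar9, Met(O2)11] substance P. Filtration, gamma counting, iterative curve fitting.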

T1 sequence (P25103 whole entry): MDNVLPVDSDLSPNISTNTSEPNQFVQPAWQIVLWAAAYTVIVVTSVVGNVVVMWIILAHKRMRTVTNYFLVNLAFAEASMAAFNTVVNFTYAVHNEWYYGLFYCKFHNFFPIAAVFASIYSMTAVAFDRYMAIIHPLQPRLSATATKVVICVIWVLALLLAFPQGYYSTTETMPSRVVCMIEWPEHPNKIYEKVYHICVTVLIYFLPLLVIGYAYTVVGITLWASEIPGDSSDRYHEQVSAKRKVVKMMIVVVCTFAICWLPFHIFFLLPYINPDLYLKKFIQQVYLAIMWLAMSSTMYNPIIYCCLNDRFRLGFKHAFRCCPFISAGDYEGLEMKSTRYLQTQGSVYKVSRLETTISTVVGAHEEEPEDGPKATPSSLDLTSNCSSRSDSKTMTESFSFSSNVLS

| SMILES | IC50 |
| --- | --- |
| CC(Cc1c[nH]c2ccccc12)(NCc1cc2ccccc2o1)C(=O)NC(Cc1ccccc1)c1ccccc1 (stereo not shown) [compound 75, 2-[(Benzofuran-2-ylmethyl)-amino]-N-(1,2-diphenyl-ethyl)-3-(1H-indol-3-yl)-2-methyl-propionamide] | > 10000 nM |
| CNCCNC(=O)C(C)(Cc1c[nH]c2ccccc12)NCc1cc2ccccc2o1 (stereo not shown) [compound 76, 2-[(Benzofuran-2-ylmethyl)-amino]-3-(1H-indol-3-yl)-2-methyl-N-(2-methylamino-ethyl)-propionamide] | 3700 nM |
| CC(Cc1c[nH]c2ccccc12)(NCc1cc2ccccc2o1)C(=O)NCc1cccc(Cl)c1 (stereo not shown) [compound 77, 2-[(Benzofuran-2-ylmethyl)-amino]-N-(3-chloro-benzyl)-3-(1H-indol-3-yl)-2-methyl-propionamide] | 17 nM |
| CC(Cc1c[nH]c2ccccc12)(NCc1cc2ccccc2o1)C(=O)NC12CN3CN(CN(C3)C1)C2 (stereo not shown) [compound 78, 2-[(Benzofuran-2-ylmethyl)-amino]-3-(1H-indol-3-yl)-2-methyl-N-(1,3,5-triaza-tricyclo[3.3.1.1>3,7]-dec-7-yl)-propionamide] | > 10000 nM |
| CC(Cc1cccc(C(F)(F)F)c1)NC(=O)C(C)(Cc1c[nH]c2ccccc12)NCc1cc2ccccc2o1 (stereo not shown) [compound 79, 2-[(Benzofuran-2-ylmethyl)-amino]-3-(1H-indol-3-yl)-2-methyl-N-[1-methyl-2-(3-trifluoromethyl-phenyl)-ethyl]-propionamide] | > 10000 nM |
| CC(Cc1c[nH]c2ccccc12)(NCc1cc2ccccc2o1)C(=O)NCC(c1ccccc1)c1ccccn1 (stereo not shown) [compound 80, 2-[(Benzofuran-2-ylmethyl)-amino]-3-(1H-indol-3-yl)-2-methyl-N-(2-phenyl-2-pyridin-2-yl-ethyl)-propionamide] | > 10000 nM |
| COC(=O)c1ccc(CNC(=O)C(C)(Cc2c[nH]c3ccccc23)NCc2cc3ccccc3o2)c(OC)c1 (stereo not shown) [compound 81, 4-{[2-[(Benzofuran-2-ylmethyl)-amino]-3-(1H-indol-3-yl)-2-methyl-propionylamino]-methyl}-3-methoxy-benzoic acid methyl ester] | > 10000 nM |
| CC(NC(=O)C(C)(Cc1c[nH]c2ccccc12)NCc1cc2ccccc2o1)C(C)(C)C (stereo not shown) [compound 82, 2-[(Benzofuran-2-ylmethyl)-amino]-3(1H-indol-3-yl)-2-methyl-N-(1,2,2-trimethyl-propyl)-propionamide] | 1140 nM |
| CN(C)CCNC(=O)C(C)(Cc1c[nH]c2ccccc12)NCc1cc2ccccc2o1 (stereo not shown) [compound 83, 2-[(Benzofuran-2-ylmethyl)-amino]-N-(2-dimethylamino-ethyl)-3-(1H-indol-3-yl)-2-methyl-propionamide] | 3520 nM |
| CC(Cc1c[nH]c2ccccc12)(NCc1cc2ccccc2o1)C(=O)NCC(CC(=O)O)c1ccc(Cl)cc1 (stereo not shown) [compound 84, 4-[2-[(Benzofuran-2-ylmethyl)-amino]-3-(1H-indol-3-yl)-2-methyl-propionylamino]-3-(4-chloro-phenyl)-butyric acid] | > 10000 nM |
| CC(Cc1c[nH]c2ccccc12)(NCc1cc2ccccc2o1)C(=O)NC1NC(=O)c2ccccc21 (stereo not shown) [compound 85] | 2440 nM |
| CC(Cc1c[nH]c2ccccc12)(NCc1cc2ccccc2o1)C(=O)NCCN1CCNC1=O (stereo not shown) [compound 86, 2-[(Benzofuran-2-ylmethyl)-amino]-3-(1H-indol-3-yl)-2-methyl-N-[2-(2-oxo-imidazolidin-1-yl)-ethyl]-propionamide] | > 10000 nM |
| CC(Cc1c[nH]c2ccccc12)(NCc1cc2ccccc2o1)C(=O)NCCCN1CCN(c2ccccn2)CC1 (stereo not shown) [compound 87, 2-[(Benzofuran-2-ylmethyl)-amino]-3-(1H-indol-3-yl)-2-methyl-N-[3-(4-pyridin-2-yl-piperazin-1-yl)-propyl]-propionamide] | > 10000 nM |
| CC1CCCC(C)N1CCCCNC(=O)C(C)(Cc1c[nH]c2ccccc12)NCc1cc2ccccc2o1 (stereo not shown) [compound 88, 2-[(Benzofuran-2-ylmethyl)-amino]-N-[4-(2,6-dimethyl-piperidin-1-yl)-butyl]-3-(1H-indol-3-yl)-2-methyl-propionamide] | > 10000 nM |
| CC(Cc1c[nH]c2ccccc12)(NCc1cc2ccccc2o1)C(=O)NC1(CN2CCCCC2)CCCCC1 (stereo not shown) [compound 89, 2-[(Benzofuran-2-ylmethyl)-amino]-3-(1H-indol-3-yl)-2-methyl-N-(1-piperidin-1-ylmethyl-cyclohexyl)-propionamide] | 6740 nM |
| CC(Cc1c[nH]cn1)NC(=O)C(C)(Cc1c[nH]c2ccccc12)NCc1cc2ccccc2o1 (stereo not shown) [compound 90, 2-[(Benzofuran-2-ylmethyl)-amino]-N-[2-(1H-imidazol-4-yl)-1-methyl-ethyl]-3-(1H-indol-3-yl)-2-methyl-propionamide] | > 10000 nM |
| CC(Cc1c[nH]c2ccccc12)(NCc1cc2ccccc2o1)C(=O)NCCCN1CCCC1=O (stereo not shown) [compound 91] | > 10000 nM |
| CC(C)NC(=O)C(C)(Cc1c[nH]c2ccccc12)NCc1cc2ccccc2o1 (stereo not shown) [compound 92, 2-[(Benzofuran-2-ylmethyl)-amino]-3-(1H-indol-3-yl)-N-isopropyl-2-methyl-propionamide] | 2290 nM |
| CC(CN1CCCC1=O)NC(=O)C(C)(Cc1c[nH]c2ccccc12)NCc1cc2ccccc2o1 (stereo not shown) [compound 93, 2-[(Benzofuran-2-ylmethyl)-amino]-3-(1H-indol-3-yl)-2-methyl-N-[1-methyl-2-(2-oxo-pyrrolidin-1-yl)-ethyl]-propionamide] | > 10000 nM |
| CC1CCC(C)N1CCCCNC(=O)C(C)(Cc1c[nH]c2ccccc12)NCc1cc2ccccc2o1 (stereo not shown) [compound 94, 2-[(Benzofuran-2-ylmethyl)-amino]-N-[4-(2,5-dimethyl-pyrrolidin-1-yl)-butyl]-3-(1H-indol-3-yl)-2-methyl-propionamide] | > 10000 nM |
| CC(Cc1c[nH]c2ccccc12)(NCc1cc2ccccc2o1)C(=O)NCc1cc(Cl)sc1Cl (stereo not shown) [compound 109, 2-[(Benzofuran-2-ylmethyl)-amino]-N-(2,5-dichloro-thiophen-3-ymethyl)-3-(1H-indol-3-yl)-2-methyl-propionamide] | 279 nM |

The next lines start with the values.

| IC50 | SMILES |
| --- | --- |
| > 10000 nM | CC(Cc1c[nH]c2ccccc12)(NCc1cc2ccccc2o1)C(=O)NCC(=O)c1nc[nH]c1N (stereo not shown) [compound 95, N-[2-(5-Amino-1H-imidazol-4-yl)-2-oxo-ethyl]-2-[(benzofuran-2-ylmethyl)-amino]-3-(1H-indol-3-yl)-2-methyl-propionamide] |
| > 10000 nM | CC(Cc1c[nH]c2ccccc12)(NCc1cc2ccccc2o1)C(=O)NCCN1CCOC1=O (stereo not shown) [compound 96, 2-[(Benzofuran-2-ylmethyl)-amino]-3-(1H-indol-3-yl)-2-methyl-N-[2-(2-oxo-oxazolidin-3-yl)-ethyl]-propionamide] |
| > 10000 nM | CC(Cc1c[nH]c2ccccc12)(NCc1cc2ccccc2o1)C(=O)NCCc1c[nH]cn1 (stereo not shown) [compound 97, 2-[(Benzofuran-2-ylmethyl)-amino]-N-[2-(1H-imidazol-4-yl)-ethyl]-3-(1H-indol-3-yl)-2-methyl-propionamide] |
| > 10000 nM | CC(Cc1c[nH]c2ccccc12)(NCc1cc2ccccc2o1)C(=O)NCC(c1ccccc1)c1ccccc1 (stereo not shown) [compound 98, 2-[(Benzofuran-2-ylmethyl)-amino]-N-(2,2-diphenyl-ethyl)-3-(1H-indol-3-yl)-2-methyl-propionamide] |
| > 10000 nM | CC(Cc1c[nH]c2ccccc12)(NCc1cc2ccccc2o1)C(=O)NCCN1CCCC1=O (stereo not shown) [compound 99, 2-[(Benzofuran-2-ylmethyl)-amino]-3-(1H-indol-3-yl)-2-methyl-N-[2-(2-oxo-pyrrolidin-1-yl)-ethyl]-propionamide] |
| 390 nM | CC(Cc1c[nH]c2ccccc12)(NCc1cc2ccccc2o1)C(=O)NCc1ccc([N+](=O)[O-])o1 (stereo not shown) [compound 100, 2-[(Benzofuran-2-ylmethyl)-amino]-3-(1H-indol-3-yl)-2-methyl-N-(5-nitro-furan-2-ylmethyl)-propionamide] |
| > 10000 nM | Cc1[nH]cnc1CCNC(=O)C(C)(Cc1c[nH]c2ccccc12)NCc1cc2ccccc2o1 (stereo not shown) [compound 101, 2-[(Benzofuran-2-ylmethyl)-amino]-3-(1H-indol-3-yl)-2-methyl-N-[2-(5-methyl-1H-imidazol-4-yl)-ethyl]-propionamide] |
| > 10000 nM | CN(C)c1cccc(C2(CNC(=O)C(C)(Cc3c[nH]c4ccccc34)NCc3cc4ccccc4o3)CCCC2)c1 (stereo not shown) [compound 102, 2-[(Benzofuran-2-ylmethyl)-amino]-N-[1-(3-dimethylamino-phenyl)-cyclopentylmethyl]-3-(1H-indol-3-yl)-2-methyl-propionamide] |
| 74 nM | CC(Cc1c[nH]c2ccccc12)(NCc1cc2ccccc2o1)C(=O)NCc1nc2ccccc2[nH]1 (stereo not shown) [compound 103, 2-[(Benzofuran-2-ylmethyl)-amino]-N-(1H-benzoimidazol-2-ylmethyl)-3-(1H-indol-3-yl)-2-methyl-propionamide] |
| > 10000 nM | CC(Cc1c[nH]c2ccccc12)(NCc1cc2ccccc2o1)C(=O)NCC1(c2ccccc2)OCCO1 (stereo not shown) [compound 105] |
| 4630 nM | CN1Cc2ccccc2CC1CNC(=O)C(C)(Cc1c[nH]c2ccccc12)NCc1cc2ccccc2o1 (stereo not shown) [compound 106, 2-[(Benzofuran-2-ylmethyl)-amino]-3-(1H-indol-3-yl)-2-methyl-N-(2-methyl-1,2,3,4-tetrahydro-isoquinolin-3-ylmethyl)-propionamide] |
| 4150 nM | CC(Cc1c[nH]c2ccccc12)(NCc1cc2ccccc2o1)C(=O)NC1CC1c1ccccc1 (stereo not shown) [compound 107, 2-[(Benzofuran-2-ylmethyl)-amino]-3-(1H-indol-3-yl)-2-methyl-N-(2-phenyl-cyclopropyl)-propionamide] |
| 4570 nM | CC(Cc1c[nH]c2ccccc12)(NCc1cc2ccccc2o1)C(=O)NCC1Cc2ccccc2CN1 (stereo not shown) [compound 108, 2-[(Benzofuran-2-ylmethyl)-amino]-3-(1H-indol-3-yl)-2-methyl-N-(1,2,3,4-tetrahydro-isoquinolin-3-ylmethyl)-propionamide] |

From patent publication US6472418B1, “Non-peptide NK1 receptors antagonists” (Warner-Lambert Company, priority 1998, dated 2002)
